Laboratory results: patent US4399817A, “Boron containing polyphosphonates for the treatment of calcific tumors” (The Procter & Gamble Company, priority 1981, dated 1983)

How the values were obtained:
[1] = Oral tablets followed by neutron irradiation in patient with calcified tumor (Example IX); assay type: in vivo, patient (human)
Protocol: Tablets are prepared by conventional methods, formulated as follows: […]

[2] = Oral capsules followed by neutron irradiation in adult with a bone tumor (Example VIII); assay type: in vivo, adult (human); settings: oral capsules (350 mg MECB or replacement) twice daily, ten days; 37 eV neutron beam about 24 hrs after last capsule
Protocol: Capsules are prepared by conventional methods, comprised as follows:
To a 76 kg adult with a bone tumor are administered orally twice daily the above capsules for a period of ten days. About 24 hrs after the last capsule is administered, the tumor site is irradiated with a 37 eV neutron beam of 2.4×10^8 neutrons cm^-2 s^-1.

[3] = Animal skeletal uptake test (99mTc scan); assay type: in vivo, Rabbits; settings: 99mTc-labelled solution, 1.0 ml injected; scanned at 3 hrs and 21 hrs
Protocol: In this test the skeletal uptake of a polyphosphonate compound is established as follows:
A reducing solution is prepared by mixing 5.0 ml of a 0.34 N NTA solution, 1.0 ml of a 0.84 M SnCl2 solution and 3.0 ml H2 O. The pH of the solution is adjusted to 5.6 with 1.0 N NaOH. 100 ul of the reducing solution is added to 1.0 ml of a ^99m TcO4^- solution, containing 19.6 mCi. The reduction of TcO4^- is checked by TLC. 0.9 ml of a 35 mg/ml solution of a boron polyphosphonate is added to the reduced technetiate solution. Rabbits are injected with 1.0 ml each of this solution. The animals are scanned for skeletal uptake at 3 hrs and 21 hrs after injection.

[4] = Crystal Growth Inhibition Test; settings: for Lag Time: pH 7.4
Protocol: The test is conducted as follows:
50 ml of a 0.01 M KH2 PO4 stock solution is diluted with 1000 ml N2 purged distilled water. 1 ml of an aqueous solution of the polyphosphonate to be tested (at a concentration to provide the desired ultimate concentration in the reaction mixture) is added to the diluted KH2 PO4 solution and the solution is adjusted to pH 7.4 with potassium hydroxide. To this solution is added 50 ml of a 0.0175 N CaCl2 solution preadjusted to pH 7.4. The KOH consumption is recorded as a function of time. The rate of KOH consumption is directly related to the rate of calcium phosphate formation. In the absence of polyphosphonate the formation of calcium phosphate starts at t=o, i.e. when the solutions of KH2 PO4 and CalCl2 are mixed. Low levels of polyphosphonates are capable of inhibiting the formation of calcium phosphate for 20 minutes or longer. This effect depends on the propensity of the polyphosphonates to adsorb on calcium phosphate crystal nuclei.
1-Methyl, 2-(2,2-ethane diphosphonic acid) o-carborane (MECB) was subjected to the Crystal Growth Inhibition Test.

[5] = Water solubility (remark in synthesis); assay type: physicochemical
Protocol: 1,2-Diphosphono-o-carborane was prepared as follows: To a solution of 5 g o-carborane in dry THF was added dropwise 46.7 ml of a 1.5 N solution of n-butyllithium at 0° C. To the mixture was then quickly added 11 g diethyl chlorophosphite. The solution was refluxed for several hours. The THF was evaporated. The resulting residue contained unreacted o-carborane and 1,2-di(diethyl phosphite) o-carborane. The latter was hydrolized to the corresponding acid in 500 ml 6 N HCl by refluxing during 24 hours, after which the remaining HCl solution was evaporated. […] The water was then evaporated, and the residue mixed with 50 ml 10% hydrogen peroxide. The mixture was carefully refluxed until the reaction was completed. The structure of 1,2-diphosphono-o-carborane was verified by ^31 P and ^11 B NMR.

1,2-di(2-chloro-2,2-ethane diphosphonic acid)o-carborane [DC1EDP]
deposition of 10B in the calcified tumor tissue ([1]; oral tablets (25 mg) four times daily): significant amounts
levels of localized alpha particles emitted ([1]; oral tablets four times daily, irradiation by 37 eV neutrons): effective levels

1-Methyl, 2-(2,2-ethane diphosphonic acid) o-carborane [MECB]
level of alpha and Li particles generated in the tumor tissue [2]: effective level
skeletal affinity [3]: high skeletal affinity
Lag Time ([4]; Concentration 1 × 10^-6 Mole): 25 min
Lag Time ([4]; Concentration 2 × 10^-6 Mole): 37 min
capability to retard the formation of calcium phosphate ([4]; compared with Cl2 MDP, Table I): the same as that of Cl2 MDP

O=P(O)(O)C(Cl)(Cl)P(=O)(O)O [Cl2 MDP, dichloromethylene diphosphonate, reference compound]
Lag Time ([4]; Concentration 1 × 10^-6 Mole): 18 min
Lag Time ([4]; Concentration 2 × 10^-6 Mole): 41 min

1,2-dicarbaclosododeca borane (12) [o-carborane]
solubility in water [5]: not soluble in water

CC(O)(P(=O)(O)O)P(=O)(O)O [EHDP, Ethane hydroxy diphosphonate, reference compound]
Lag Time ([4]; Concentration 1 × 10^-6 Mole): 82 min
